The text below walks through data of patent US20060165732A1, “Fungal antigens and eosinophil activity” (priority 2002, published 2006).

The subject of one experiment is eosinophils. Kind of experiment: Intracellular calcium [Ca^2+]i in eosinophils (indo-1, flow cytometer). Particulars: 100 μg/mL extract or 10 ng/mL IL-5, 37° C. In kind it is cell-based, human. The protocol:
Real time changes in cytosolic free Ca^2+ (intracellular Ca^2+ concentration ([Ca^2+]i)) were measured in a flow cytometer using the fluorescent calcium indicator indo-1 (Rabinovitch et al., 1986, J. Immunol., 137:952; Grynkiewicz et al., 1985, J. Biol Chem., 260:3440). Indicator was introduced into cells by incubating 1 mL of eosinophils at a concentration of 1 to 2×10^6 cells/mL with 3 μM indo-1/AM (Molecular Probes, Eugene, Oreg.) in phenol red-free RPMI 1640 medium supplemented with 10% alpha calf serum and 10 mM HEPES for 30 minutes at 37° C. After washing, cells were suspended in RPMI with 0.1% HSA and 10 mM HEPES at 1×10^6 cells/mL. To measure [Ca^2+]i, cells were stimulated with 100 μg/mL Alternaria culture extract or 10 ng/mL IL-5, and fluorescence was analyzed by a FACS analyzer equipped with an ion-argon laser (Becton Dickinson). [Ca^2+]i was monitored on the basis of the ratio of the fluorescence of the calcium-bound indo-1 emission (401 nm) and the free indo-1 emission (475 nm). In addition, the [Ca^2+] in the medium can be manipulated to determine the effect on [Ca^2+]i.
(Calcium assays in cells follow changes in intracellular calcium, usually with a dye or a luminescent sensor.)

In another experiment the test system is Human eosinophils. Kind of experiment: Eosinophil degranulation measured by EDN release (RIA). In kind it is cell-based. Here is the method:
The ability to induce eosinophilic degranulation was measured by EDN release. Human eosinophils were isolated from normal volunteers and volunteers reporting past allergies, hay fever, and/or asthma by Percoll density gradient centrifugation and magnetic cell sorting using MACS anti-CD16 microbeads as described by Hansel et al. (1991, J. Immunol. Methods, 145:105). Briefly, after peripheral blood was overlaid on an isotonic Percoll solution (1.084 g/ml; Sigma), the blood was centrifuged at 1000×g for 30 minutes at 4° C. Mononuclear cells at the interface were removed, and erythrocytes in the sediment were lysed by two cycles of hypotonic water lysis. Isolated granulocytes were washed twice with PIPES buffer (25 mM PIPES, 50 mM NaCl, 5 mM KCl, 25 mM NaOH, 5.4 mM glucose, pH 7.4) containing 1% bovine calf serum (Hyclone Laboratories; Logan, Utah). Cells were then incubated with an equal volume of anti-CD16-conjugated magnetic beads (Miltenyi Biotec, Auburn, Calif.) for 30 minutes at 4° C. with occasional gentle mixing. After 30 minutes of incubation on ice, cells were loaded onto a separation column positioned in the strong magnetic field of the MACS. Cells were eluted three times with 5 mL of PIPES buffer containing 1% bovine calf serum. The purity of eosinophils, as counted by Randolph's stain, was regularly >98%. Purified eosinophils were used immediately for experiments.
To monitor eosinophil degranulation, 200 μL of freshly isolated eosinophils were resuspended in HBSS with 25 mM HEPES and 0.01% gelatin at 5×10^5 cells/mL and incubated with the a particular fungal extract. […] To quantitate eosinophil degranulation, the concentration of one of the eosinophil granule proteins in the sample supernatants, EDN, was measured by specific RIA, as described previously (Horie & Kita, 1994, J. Immunol., 152:5457). […] Total cellular EDN was measured in parallel supernatants from cells lysed with Nonidet P-40 detergent (Sigma Chemical Co.). […]

Experiment [1] has as its system Human peripheral blood eosinophils. Kind of experiment: IL-8 production by eosinophils (ELISA). In kind it is cell-based. Particulars: 0.01 μg/mL, 24 hours. Here is the method:
Human peripheral blood eosinophils can produce and release proinflammtory cytokines including IL-8. Eosinophils were incubated with 50 μg/mL or 100 μg/mL of Alternaria, or with 0.01 μg/mL IL-5, and the amount of IL-8 was measured. Purified eosinophils (1 mL at 1×10^6 cells/mL) were cultured in RPMI 1640 medium supplemented with 10% BCS in the presence of Alternaria or IL-5 using 48-well tissue culture plates (Costar, Cambridge, Mass.). After incubating the eosinophils with Alternaria or IL-5 for 24 hours at 37° C. in an atmosphere of 5% CO2, cell free supernatants were collected and frozen at −20° C. The concentrations of IL-8 in the supernatants were measured using an ELISA kit (Quantikine IL-8 Immunoassay Kit, R&D Systems, Minneapolis, Minn.). The threshold sensitivity of the kit was 4 pg/mL.
On the technique in general: An ELISA detects its analyte on a solid surface through an enzyme-linked reagent.

In the case of “IL-5: cytokine used as reference stimulus of eosinophil degranulation”, the “change in [Ca^2+]i” value in the experiment on eosinophils was “no elevation of [Ca^2+]i”. The same substance returned an EDN release in the experiment with Human eosinophils (10 ng/mL) of 52.1±6.5 ng EDN/10^6 cells. Further, the “EDN release, eosinophils from allergy patients versus normal individuals” value in the experiment on Human eosinophils (100 μg/mL Alternaria culture extracts or 10 ng/mL IL-5) was “no difference”. In addition, in the experiment on Human eosinophils (incubation at 4° C. for 3 hours), the “EDN release at 4° C.” value is on record as “abrogated EDN release”. Also, the “IL-8 production from eosinophils” value in experiment [1] is reported as “very little IL-8”.
